Measurements published in US11793852B2, “Application of Longhu Rendan in preparing medicament for preventing and/or treating liver fibrosis” (Shanghai Zhonghua Pharmaceutical Co., Ltd, priority 2017, dated 2023).

What was measured:
[1] = tested on: mice with liver fibrosis induced by CCl4; test: Serological indicators (serum AST and ALT activity) in mice with liver fibrosis induced by CCl4; format: in vivo; conditions: silybin 70 mg/kg/d, gastric perfusion, 6 weeks; compared to the CCl4 group, P<0.05
Protocol: (§1) Experimental animals: SPF grade C57 mice, 8-week old, half male and half female, supplied by Guangdong Medical Lab Animal Center, housed in an animal room in a barrier environment (SPF grade), and feeds and water and libitum. Certificate [SCXK(YUE) 2013-0002].
Administration: 32 pills of Longhu Rendan were placed in a mortar and ground, dissolved in 20 mL of 0.5% CMC-Na, pipetted into a 50-mL centrifuge tube, vortexed to be completely dissolved, and made up to 32 mL (solution A). Six 5-ml EP tubes were charged with the solution A per 3 mL/tube (namely, daily dosage for a high-dose group). Another 50-mL tube was charged with 9 ml of the solution A, added with 9 mL 0.5% CMC-Na, and mixed uniformly; and six 5-ml EP tubes were charged with the solution per 3 mL/tube (namely, daily dosage for a medium-dose group). Another 50-mL centrifuge tube was charged with 4.5 ml of the solution A, added with the 0.5% CMC-Na solution to 18 mL, and mixed uniformly; and six 5-ml EP tubes were charged with the solution per 3 mL/tube (namely, daily dosage for a low-dose group). Continue for 6 weeks, 6×32 pills=192 pills in total, about 4 boxes. […]
After fasting for 12 h, the eyeballs were removed and blood was taken and serum was separated. ALT and AST activities were determined by alanine aminotransferase (ALT) and aspartate aminotransferase (AST) kits.

[2] = tested on: mice with liver fibrosis induced by CCl4; test: Pathological indicators (HE, Sirius Red, α-SMA immunohistochemical staining of livers) in mice with liver fibrosis induced by CCl4; format: in vivo; conditions: silybin 70 mg/kg/d, 6 weeks
Protocol: as §1
Administration: 32 pills of Longhu Rendan were placed in a mortar and ground, dissolved in 20 mL of 0.5% CMC-Na, pipetted into a 50-mL centrifuge tube, vortexed to be completely dissolved, and made up to 32 mL (solution A). Six 5-ml EP tubes were charged with the solution A per 3 mL/tube (namely, daily dosage for a high-dose group). Another 50-mL tube was charged with 9 ml of the solution A, added with 9 mL 0.5% CMC-Na, and mixed uniformly; and six 5-ml EP tubes were charged with the solution per 3 mL/tube (namely, daily dosage for a medium-dose group). Another 50-mL centrifuge tube was charged with 4.5 ml of the solution A, added with the 0.5% CMC-Na solution to 18 mL, and mixed uniformly; and six 5-ml EP tubes were charged with the solution per 3 mL/tube (namely, daily dosage for a low-dose group). Continue for 6 weeks, 6×32 pills=192 pills in total, about 4 boxes.
Formulation of silybin: one 50-mL centrifuge tube was added with 10 to 12 mL of 0.5% CMC-Na, charged with 4 capsules, dissolved, made up to 20 mL with 0.5% CMC-Na, and mixed uniformly. Six 5-ml EP tubes were charged with the solution per 3 mL/tube (namely, daily dosage). Continue for 6 weeks, 6×4 capsules=24 capsules in total, about 2 boxes.
[…] healthy KM mice were randomly divided into 6 groups with 8 mice/group. Namely: a blank control group, a CCl4 model group, a silybin positive control group, and low, medium, and high dose groups of Longhu Rendan. All groups received a normal diet. […]
HE staining, Sirius Red staining, and smooth muscle actin protein α-SMA immunohistochemical staining. Positive staining areas of Sirius Red staining and immunohistochemical staining were calculated by the ImageJ software, data was processed and plotted by GraphPadPrism, and t-test analysis was performed, where P<0.05 was considered statistically significant.

COc1cc(C2Oc3cc([C@H]4Oc5cc(O)cc(O)c5C(=O)[C@@H]4O)ccc3OC2CO)ccc1O (stereo partly shown) [silybin]
serum AST activity [1]: significantly reduced
degree of fibrosis (Sirius Red staining of mouse livers) [2]: significantly improve the degree of fibrosis
degree of fibrosis (α-SMA immunohistochemical staining of mouse livers) [2]: significantly improve the degree of fibrosis
inflammatory infiltration and liver injury (HE staining of mouse livers) ([2]; compared to the CCl4 model group): improved at different degrees
